# Assay results published in patent US20250235410A1, “WATER-SOLUBLE CANNABIDIOL MICROCAPSULES AND PREPARATION METHOD THEREOF” (Northeast Agricultural University, priority 2022, published 2025).
# Key:
# [1] = Influence of incandescent light on stability (retention rate of CBD); type: physicochemical; conditions: 15th day of incandescent light (25 W), 4 °C, sealed
# Description: (§1) Determination of retention rate of CBD in MRPs-CBD microcapsules: the above method to determine CBD content in MRPs-CBD microcapsules is used to accurately determine the initial CBD content in MRPs-CBD microcapsules and the CBD content retained in microcapsules under different treatment methods, and the retention rate of CBD in microcapsules is calculated according to the following formula: […]
# A proper amount of samples are weighed, sealed, placed under incandescent light (25 W) at 4° C. for 15 d, and taken out on the 1st, 3rd, 6th, 9th, 12th and 15th day respectively, and the retention rate of CBD is determined.
# [2] = Influence of temperature on stability (retention rate of CBD); type: physicochemical; conditions: 4-100 °C, sealed, dark, 12 h
# Description: Determination of retention rate of CBD in MRPs-CBD microcapsules: the above method to determine CBD content in MRPs-CBD microcapsules is used to accurately determine the initial CBD content in MRPs-CBD microcapsules and the CBD content retained in microcapsules under different treatment methods, and the retention rate of CBD in microcapsules is calculated according to the following formula:
# An appropriate amount of samples are weighed, placed in a sealed and dark environment at 4° C., 25° C., 37° C., 50° C., 80° C. and 100° C. for 12 h and taken out, and the retention rate of CBD is determined.
# [3] = DPPH radical scavenging rate; type: biochemical; conditions: P<0.05
# Description: (§2) The antioxidant activity of glycosylation product-based water-soluble cannabidiol microcapsules is analyzed through radical scavenging rate. The scavenging ability of 1,1-Diphenyl-2-picrylhydrazyl (DPPH) and, 2′-azino-bis (3-ethylbenzothiazoline-6-sulfonic acid (ABTS^+) radical cation is mainly studied.
# Determination of DPPH radical scavenging rate: 1 mL of CBD with different concentrations, methanol solution of microcapsules with different concentrations and 4 mL of 0.1 mmol/L DPPH solution (DPPH dissolved in 95% ethanol) are mixed evenly, and kept in the dark for 30 min at room temperature. Using 95% ethanol as reference solution, the absorbance at 517 nm is read. The absorbance value of the sample mixed with DPPH ethanol solution is recorded as A, the absorbance value of the sample mixed with 95% ethanol solution is Ai, and the absorbance value of the single DPPH ethanol solution is Aj. The calculation formula is as follows: […]
# [4] = Influence of oxygen on stability (retention rate of CBD); type: physicochemical; conditions: 15th day, dark, aerobic
# Description: as §1
# An appropriate amount of samples are weighed, placed at 4° C. and 25° C. for 15 days in the dark and aerobic conditions, and taken out at on 1st, 3rd, 5th, 7th, 9th, 12th and 15th day to determine the retention rate of CBD. See FIG. 8A and FIG. 8B for the test results.
# [5] = Release in simulated gastric juice; type: in vitro ADME; conditions: 1 h in simulated gastric juice
# Description: An appropriate amount of samples are weighed and released in simulated gastric juice. Samples are taken according to the time gradient of 0.5, 1.0, 1.5, 2.0, 2.5 and 3.0 h, and the cumulative release rate of CBD is determined.
# [6] = ABTS+ radical cation scavenging rate; type: biochemical; conditions: P<0.05
# Description: as §2
# Determination of ABTS^+ radical scavenging rate: 10 mg of ABTS and 2.9 mg of potassium persulfate are taken, dissolved in 10 mL of 0.01 mol/L sodium phosphate buffer, and stored in the dark at 25° C. for 15 h for later use. 2.5 mL ABTS solution is taken, added with 20 mL of 0.01 mol/L sodium phosphate buffer, and diluted with distilled water so that the absorbance at 734 nm is 0.7, to obtain an ABTS analysis solution. 1 mL of CBD with different concentrations and methanol solutions of microcapsules with different concentrations are taken respectively, added with 2 mL of above ABTS analysis solution to the test tube for reacting for 10 min, and then 95% ethanol is used as reference solution to read the absorbance value at 734 nm. The absorbance value of the sample mixed with ABTS analysis solution is marked as A, the absorbance value of the sample mixed with 95% ethanol solution is Ai, and the absorbance value of the single ABTS analysis solution is Aj. The calculation formula is as follows: […]
# [7] = Release in simulated intestinal juice; type: in vitro ADME; conditions: 1 h in simulated intestinal juice
# Description: An appropriate amount of samples are weighed and released in simulated intestinal juice. Samples are taken according to the time gradient of 0.5, 1.0, 1.5, 2.0, 2.5 and 3.0 h, and the cumulative release rate of CBD is determined.
# [8] = Influence of environmental pH value on stability (retention rate of CBD); type: physicochemical; conditions: 4 °C, 12 h
# Description: as §1
# A proper amount of samples are weighed and dissolved in distilled water, and the pH values of the solutions are adjusted as 1, 2, 3, 4, 5, 6, 7, 8, 9, 10, 11 and 12 respectively, and samples are placed in a sealed and dark environment at 4° C. for 12 h, then taken out and its retention rate of CBD is determined.
smiles,measurement,setting,value
"C=C(C)[C@@H]1CCC(C)=C[C@H]1c1c(O)cc(CCCCC)cc1O [unencapsulated CBD, Cannabidiol]",retention rate of CBD,[1],24.53±1.56%
same,"retention rate of CBD, trend with increase of temperature",[2],continuous downward trends
same,"DPPH scavenging rate, change with increase of CBD concentration",[3],increase significantly
same,retention rate of CBD,[4]; 4 °C,43.87±1.83%
same,retention rate of CBD,[4]; 25 °C,38.85±1.76%
same,fate of CBD in simulated gastric juice,[5],completely digested and degraded
same,"ABTS+ scavenging rate, change with increase of CBD concentration",[6],increase significantly
same,fate of CBD in simulated intestinal juice,[7],completely digested and degraded
same,"retention rate of CBD, trend",[8]; environmental pH increases from 1 to 6,increase significantly
same,"retention rate of CBD, trend",[8]; environmental pH increases from 8 to 12,decrease significantly
